Experimental data taken from PMC11675283, “Anticholinesterase Activity and Bioactive Compound Profiling of Six Hop (Humulus lupulus L.) Varieties” (Foods, 2024).
Converted amounts (≈) assume the structure as drawn.

Biological target: T1, tyrosinase from mushrooms
T1 construct: gene PPO3; commercial native mushroom tyrosinase (Sigma-Aldrich), isoenzyme mixture
Assay: colorimetric diphenolase assay, absorbance at […] nm
Format: biochemical
Conditions: L-DOPA substrate

O=C(O)CCCCCCCC(=O)O [azelaic acid]
IC50: 1470 µg/mL (≈ 7.81 mM)
